Patent publication US20260234165A1, “MACROCYCLIC COMPOUNDS, PREPARATION METHOD THEREFOR, AND USE THEREOF” (GENFLEET THERAPEUTICS (SHANGHAI) INC., priority 2004, published 2026)
Structures can show the parent of a compound that is named as a salt. Where two headings read alike, the source gives them in different places.

Legend:
Assay type in all cases: cell-based, human
[1] = system: p-ERK in AsPC-1 cells (KRAS G12D mutation); experiment: Cell p-ERK assay (HTRF) in AsPC-1 cells; conditions: AsPC-1 cells, 3 h compound incubation, HTRF p-ERK T202/Y204, read-out: AsPC-1 p-ERK IC50
How it was run: (§1)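 Seed 10000 AsPC-1 or 20000 NCI-H441 cells/well, overnight 37 °C/5% CO2. Cpd 3.16-fold series, 0.1% DMSO final, 3 h. Lyse 30 min, HTRF p-ERK (T202/Y204) Ab 4 h. IC50: 4-parameter fit of IR% normalised to DMSO and blank.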

[2] = system: AsPC-1 cells (KRAS G12D mutation); experiment: 3D cell proliferation assay (CellTiter Glo-3D), AsPC-1; conditions: medium with 2% FBS, read-out: AsPC-1 AP IC50
How it was run: (§2)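 Proliferation of the KRAS-mutant lines NCI-H441 and AsPC-1 is measured over 5 days of compound treatment in medium with 2% FBS. Inhibition is computed from luminescence relative to DMSO and cell-free controls, and IC50 comes from a four-parameter curve.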

[3] = system: p-ERK in NCI-H441 cells (KRAS G12V mutation); experiment: Cell p-ERK assay (HTRF) in NCI-H441 cells; conditions: NCI-H441 cells, 3 h compound incubation, HTRF p-ERK T202/Y204, read-out: H441 p-ERK IC50
How it was run: as §1

[4] = system: NCI-H441 cells; experiment: 3D cell proliferation assay (CellTiter Glo-3D), NCI-H441; conditions: medium with 2% FBS, read-out: H441 AP IC50
How it was run: as §2

[5] = Homo sapiens, ASPC1, 3D cell proliferation (CellTiter Glo-3D)
[6] = Homo sapiens, NCI-H441, 3D cell proliferation (CellTiter Glo-3D)
[7] = 3D cell proliferation (CellTiter Glo-3D)

Row | IC50 ([1]; Homo sapiens, ASPC1, 3 h) | IC50 [2, 5] | IC50 ([3]; Homo sapiens, NCI-H441, 3 h) | IC50 [4, 6] | IC50 [1] | IC50 [2, 7] | IC50 [3] | IC50 [4, 7] | SMILES
1 | 0.29 nM | 0.22 nM | 0.17 nM | 0.16 nM | – | – | – | – | CCn1c(-c2cc(N3CCC(N4CCS(=O)(=O)CC4)CC3)cnc2[C@H](C)OC)c2c3cc(ccc31)-c1csc(n1)C[C@H](NC(=O)[C@H]1[C@H](C)[C@@H]1C)C(=O)N1CCC[C@H](N1)C(=O)OCC(C)(C)C2 (atropisomer, axis not shown; (Ra)) [Compound Z855, (1r,2R,3S)—N-((6S,4S,Z)—(Ra)-1^2-(5-(4-(1,1-dioxidothiomorpholino)piperidin-1-yl)-2-((S)-1-methoxyethyl)pyridin-3-yl)-1^1-ethyl-10,10-dimethyl-5,7-dioxo-6^1,6^2,6^3,6^4,6^5,6^6-hexahydro-1^1H-8-oxa-2(4,2)-thiazola-1(5,3)-indola-6(1,3)-pyridazinacycloundecaphane-4-yl)-2,3-dimethylcyclopropane-1-carboxamide]
2 | – | – | – | – | 0.19 nM | 0.24 nM | 0.27 nM | 0.11 nM | CCn1c(-c2cc(C#CCN3CCCOCC3)c[n+]([O-])c2[C@H](C)OC)c2c3cc(ccc31)-c1csc(n1)C[C@H](NC(=O)[C@H]1[C@H](C)[C@@H]1C)C(=O)N1CCC[C@H](N1)C(=O)OCC(C)(C)C2 (atropisomer, axis not shown; (Ra)) [Compound Z914-1, 5-(3-(1,4-oxazepan-4-yl)prop-1-yn-1-yl)-(Ra)-3-((6^3S,4S,Z)-4-((1r,2R,3S)-2,3-dimethylcyclopropane-1-carboxamido)-1^1-ethyl-10,10-dimethyl-5,7-dioxo-6^1,6^2,6^3,6^4,6^5,6^6-hexahydro-1^1H-8-oxa-2(4,2)-thiazola-1(5,3)-indola-6(1,3)-pyridazinacycloundecaphane-12-yl)-2-((S)-1-methoxyethyl)pyridine-1-oxide]
3 | – | – | – | – | 33.8 nM | 38.3 nM | 9.41 nM | 15 nM | CCn1c(-c2cc(C#CCN3CCCOCC3)cnc2[C@H](C)OC)c2c3cc(ccc31)-c1csc(n1)C[C@H](NP(=O)(CC)CC)C(=O)N1CCC[C@H](N1)C(=O)OCC(C)(C)C2 (atropisomer, axis not shown; (Ra)) [Compound Z920, N-((6^3S,4S,Z)—(Ra)-1^2-(5-(3-(1,4-oxazepan-4-yl)prop-1-yn-1-yl)-2-((S)-1-methoxyethyl)pyridin-3-yl)-1^1-ethyl-10,10-dimethyl-5,7-dioxo-6^1,6^2,6^3,6^4,6^5,6^6-hexahydro-1^1H-8-oxa-2(4,2)-thiazola-1(5,3)-indola-6(1,3)-pyridazinacycloundecaphane-4-yl)-P,P-diethylphosphoramidite formate]
4 | 3.89 nM | 6.34 nM | 1.77 nM | 3.86 nM | – | – | – | – | CCn1c(-c2cc(C#CCN3CCCOCC3)cnc2[C@H](C)OC)c2c3cc(ccc31)-c1csc(n1)C[C@H](NC(=O)C(F)(F)C1CC1)C(=O)N1CCC[C@H](N1)C(=O)OCC(C)(C)C2 (atropisomer, axis not shown; (Ra)) [Compound Z927]
5 | 2.28 nM | 3.82 nM | 1.02 nM | 2.25 nM | – | – | – | – | CCn1c(-c2cc(C#CCN3CCCOCC3)cnc2[C@H](C)OC)c2c3cc(ccc31)-c1csc(n1)C[C@H](NC(=O)C[C@@H]1CC1(F)F)C(=O)N1CCC[C@H](N1)C(=O)OCC(C)(C)C2 (atropisomer, axis not shown; (Ra)) [Compound Z932-1, N-((6^3S,4S,Z)—(Ra)-1′-(5-(3-(1,4-oxazepan-4-yl)prop-1-yn-1-yl)-2-((S)-1-methoxyethyl)pyridin-3-yl)-1^1-ethyl-10,10-dimethyl-5,7-dioxo-6^1,6^2,6^3,6^4,6^5,6^6-hexahydro-1^1H-8-oxa-2(4,2)-thiazola-1(5,3)-indola-6(1,3)-pyridazinacycloundecaphane-4-yl)-2-((R)-2,2-difluorocyclopropyl)acetamide]
6 | 2.62 nM | 5.52 nM | 1.16 nM | 2.32 nM | – | – | – | – | CCn1c(-c2cc(C#CCN3CCCOCC3)cnc2[C@H](C)OC)c2c3cc(ccc31)-c1csc(n1)C[C@H](NC(=O)C[C@H]1CC1(F)F)C(=O)N1CCC[C@H](N1)C(=O)OCC(C)(C)C2 (atropisomer, axis not shown; (Ra)) [Compound Z932-2, N-((6^3S,4S,Z)—(Ra)-1^2-(5-(3-(1,4-oxazepan-4-yl)prop-1-yn-1-yl)-2-((S)-1-methoxyethyl)pyridin-3-yl)-1^1-ethyl-10,10-dimethyl-5,7-dioxo-6^1,6^2,6^3,6^4,6^5,6^6-hexahydro-1^1H-8-oxa-2(4,2)-thiazola-1(5,3)-indola-6(1,3)-pyridazinacycloundecaphane-4-yl)-2-((S)-2,2-difluorocyclopropyl)acetamide]
7 | 2.14 nM | 4.14 nM | 1.22 nM | 1.68 nM | – | – | – | – | CCn1c(-c2cc(C#CCN3CCCOCC3)cnc2[C@H](C)OC)c2c3cc(ccc31)-c1csc(n1)C[C@H](NC(=O)CC1CC1(F)F)C(=O)N1CCC[C@H](N1)C(=O)OCC(C)(C)C2 (atropisomer, axis not shown; (Ra)) [Compound Z932]
8 | 0.28 nM | 0.23 nM | 0.18 nM | 0.23 nM | – | – | – | – | CCn1c(-c2cc(C#CCN3CC(OC)C3)cnc2[C@H](C)OC)c2c3cc(ccc31)-c1csc(n1)C[C@H](NC(=O)[C@H]1[C@H](C)[C@@H]1C)C(=O)N1CCC[C@H](N1)C(=O)OCC(C)(C)C2 (atropisomer, axis not shown; (Ra)) [Compound Z945, (1r,2R,3S)—N-((6^3S,4S,Z)-1^1-ethyl-1^2-(5-(3-(3-methoxyazetidin-1-yl)prop-1-yn-1-yl)-(Ra)-2-((S)-1-methoxyethyl)pyridin-3-yl)-10,10-dimethyl-5,7-dioxo-6^1,6^2,6^3,6^4,6^5,6^6-hexahydro-1^1H-8-oxa-2(4,2)-thiazola-1(5,3)-indola-6(1,3)-pyridazinacycloundecaphane-4-yl)-2,3-dimethylcyclopropane-1-carboxamide]
9 | 0.42 nM | 0.36 nM | 0.5 nM | 0.43 nM | – | – | – | – | CCn1c(-c2cc(C#CCN3CCCNCC3)cnc2[C@H](C)OC)c2c3cc(ccc31)-c1csc(n1)C[C@H](NC(=O)[C@H]1[C@H](C)[C@@H]1C)C(=O)N1CCC[C@H](N1)C(=O)OCC(C)(C)C2 (atropisomer, axis not shown; (Ra)) [Compound Z951]
10 | 0.53 nM | 0.27 nM | 0.54 nM | 0.34 nM | – | – | – | – | CO[C@@H](C)c1ncc(C#CCN2CCS(=O)(=O)CC2)cc1-c1c2c3cc(ccc3n1CCO)-c1csc(n1)C[C@H](NC(=O)[C@H]1[C@H](C)[C@@H]1C)C(=O)N1CCC[C@H](N1)C(=O)OCC(C)(C)C2 (atropisomer, axis not shown; (Ra)) [Compound Z952, (1r,2R,3S)—N-((6^3S,4S,Z)—(Ra)-1^2-(5-(3-(1,1-dioxidothiomorpholino)prop-1-yn-1-yl)-2-((S)-1-methoxyethyl)pyridin-3-yl)-1^1-(2-hydroxyethyl)-10,10-dimethyl-5,7-dioxo-6^1,6^2,6^3,6^4,6^5,6^6-hexahydro-1^1H-8-oxa-2(4,2)-thiazola-1(5,3)-indola-6(1,3)-pyridazinacycloundecaphane-4-yl)-2,3-dimethylcyclopropane-1-carboxamide]
11 | 2.47 nM | 5.14 nM | 1.05 nM | 1.23 nM | – | – | – | – | CCn1c(-c2cc(C#CCN3CCCS(=O)(=O)CC3)cnc2[C@H](C)OC)c2c3cc(ccc31)-c1csc(n1)C[C@H](Nc1nnc3cc(C)ccn13)C(=O)N1CCC[C@H](N1)C(=O)OCC(C)(C)C2 (atropisomer, axis not shown; (Ra)) [Compound Z979]
12 | – | – | – | – | 2.89 nM | 2.07 nM | 1.22 nM | 1.54 nM | CCn1c(-c2cc(C#CCN3CC[C@H](C#N)C3)cnc2[C@H](C)OC)c2c3cc(ccc31)-c1csc(n1)C[C@H](Nc1nnc3cc(C)ccn13)C(=O)N1CCC[C@H](N1)C(=O)OCC(C)(C)C2 (atropisomer, axis not shown; (Ra)) [Compound Z1011, (3S)-1-(3-(5-((6^3S,4S,Z)—(Ra)-1^1-ethyl-10,10-dimethyl-4-((7-methyl-[1,2,4]triazolo[4,3-a]pyridin-3-yl)amino)-5,7-dioxo-6^1,6^2,6^3,6^4,6^5,6^6-hexahydro-1^1H-8-oxa-2(4,2)-thiazola-1(5,3)-indola-6(1,3)-pyridazinacycloundecaphane-1-yl)-6-((S)-1-methoxyethyl)pyridin-3-yl)prop-2-yn-1-yl)pyrrolidine-3-carbonitrile]
13 | 0.17 nM | 0.39 nM | 0.17 nM | 0.28 nM | – | – | – | – | CCn1c(-c2cc(C#CCN3CCCOCC3)cnc2[C@H](C)OC)c2c3cc(ccc31)-c1csc(n1)C[C@H](NC(=O)C1[C@H]3COC[C@@H]13)C(=O)N1CCC[C@H](N1)C(=O)OCC(C)(C)C2 (atropisomer, axis not shown; (Ra)) [Compound Z1030]
